In brackets after ≈: the same amount, converted by molar mass. Where two headings read alike, the source gives them in different places.
Legend:
TrkA = TrkA (Homo sapiens, UniProt P04629); experiment: Kinase activity assay; type: biochemical; details: listed = inhibited more than 60%
Experimental: (§1) • Kinase-Glo(Plus)/ADP-Gloassay buffer 25 mMHEPES, 10 mMMgCl2, 0.01% Triton X-100, 100 μg/mLBSA, 2.5 mMDTT, pH7.4. • Caliper assay buffer 100 mMHEPES, 10 mMMgCl2, 100 μl/L Brij35 (30%), 1 mMDTT, pH7.4. Assay Substrates • MBP protein, UnactiveMEK1, Rbprotein were purchased from SignalChem. Poly(glu:tyr)(4:1) was purchased from Sigma. PIP2 was purchased from Cayman. Peptide substrates were synthesized in HD Biosciences, China. ATP was purchased from Sigma. KinaseGloPlus reagent, KinaseGloreagent and ADP Gloreagent were purchased from Promega Assay Procedure—Caliper Format
(§2) Mix Kinases, substrate, ATP and compound in 96-well assay plate, total volume is 50 μL. Incubate assay plate at 30° C. for 1 hour. Stop reaction by adding 20 μL of 35 mM EDTA and transfer 26 μL stopped reaction to 384-well assay plate. Read the assay plate on the plate reader.
(§3) Mix Kinases, substrate, ATP and compound in 384-well assay plate, total volume is 10 μl. Incubate assay plate at 30° C. for 1 hour. Add 10 μl/well of ADP GloReagent to the assay plate, incubate at 27° C. for 40 min.
(§4) Add 20 μl/well Detection Reagent to the assay plate, incubate at 27° C. for 30 min. Read the assay plate on the plate reader
(§5) Mix Kinase, substrate, ATP and compound in 384-well assay plate, total volume is 10 μl. Incubate assay plate at 30° C. for 1 hour. Add 10 μl/well KinaseGlo(Plus) reagent to the reaction mixture, and then incubate at 27° C. for 20 min. Read the assay plate on plate reader. • Hundred percent effect was performed without compound and enzyme, but containing ATP and substrate. • Zero percent effect was carried out without compound, but containing ATP, substrate and enzyme. • SB202190 is reference compounds for kinase p38β; Staurosporine(STSP) is reference compound for the remaining kinases. Results

PI3Kγ = PI3Kγ (Homo sapiens, UniProt P48736); experiment: Kinase activity assay; type: biochemical; details: listed = inhibited more than 60%
Experimental: as §1, §2, §3, §4, §5

PI3Kδ = PI3Kδ (Homo sapiens, UniProt O00329); experiment: Kinase activity assay; type: biochemical; details: listed = inhibited more than 60%
Experimental: as §1, §2, §3, §4, §5

PI3Kβ = PI3Kβ (Homo sapiens, UniProt P42338); experiment: Kinase activity assay; type: biochemical; details: listed = inhibited more than 60%
Experimental: as §1, §2, §3, §4, §5

Haemophilus influenzae = experiment: MIC screening, broth microdilution (CLSI)
Experimental: (§6) The minimum inhibition concentration (MIC) screening was performed with 14 bacterial strains and 4 compounds. The MICs were determined by the broth microdilution method according to the Clinical and Laboratory Standards Institute (CLSI) guidelines. The MIC screening was performed on 96-well plates containing the compounds in serial 2-fold dilutions from 64 to 0.06 μg/ml. The bacterial inoculations were prepared in cation-adjusted Mueller Hinton medium broth from cultures grown on appropriate agar plates which are prepared freshly every week. The growth controls and sterile controls were included in each assay plates. The assay plates were incubated in an ambient-air incubator at 35±2° C. for 16-20 hr (24 hr for MRSA), and bacterial growth was observed and recorded.
(§7) A. Revive bacterial strains from storage frozen (−80° C.) two days before the MIC screening. Streak onto surface of appropriate agar plates, and incubate the plates for 20-24 hr at 35±2° C. in an appropriate atmosphere.
Haemophilus influenzae: chocolate agar, 5% CO2
(§8) B. Select 5-10 well-isolated colonies of similar morphology and restreak onto fresh agar plates using sterile loops. Incubate the plates for 20-24 hr at 35±2° C. in an appropriate atmosphere as above.
(§9) Compound stock solutions were prepared in 100% DMSO on the day of MIC screening and use immediately. Compound stock concentration=[(highest testing concentration)×103 μl/3 μl] (e.g. if the required highest testing concentration is 64 μg/ml in assay plates, stock concentration=64×103/3=2.2 mg/ml). The potency of testing compound is assumed as 100% unless otherwise stated whereas the potency of reference compound is calculated according to manufacturer's analysis data.
(§10) Eleven two-fold dilutions per compound were made then transferred 3 μl to each well of test plate. Final concentration of DMSO in the MIC screening is ˜3%.
(§11) B. Transfer colonies from fresh culture plates into 5 ml of saline with sterile loops and mix well. Measure and adjust turbidity to 0.5 McFarland barium sulphate standard using a turbidity meter. Alternatively, transfer 1-2 colonies into 500 μl of saline and adjust OD625 to ˜0.1 using a plate reader. […] Dilute bacterial inoculum 1:280 for Gram-positive and fastidious strains and 1:400 for Gram-negative strains into corresponding medium broth (CAMHB, CAMHB+3% lysed horse blood, HTM) (e.g. 35.6 μl of inoculum into 10 ml of CAMHB or 25 μl of inoculum into 10 ml of CAMHB). H. influenzae: HTM Streptococci: CAMHB+3% lysed horse blood Other strains in the panel: CAMHB 2.4. Prepare Assay Plates A. Add 100 μl of the bacterial inoculum to each well of the compound plates except wells B12, D12, F12 and H12. B. Add 100 μl of medium broth to wells B12, D12, F12 and H12 of the compound plates. […] Stack four plates together and cover with a sterile plate lid. Incubate in an ambient-air incubator at 35±2° C. for 16-20 hours (24 hours for MRSA). […] Perform Colony Counts A. Dilute the bacterial inoculum (0.5 McFarland) to a serial of 10-1 to 10-7 in saline solution (e.g. 100 μl bacterial inoculum+900 μl of saline). B. Spread 100 μl of each dilution (10-4, 10-5, 10-6, and 10-7) onto CAMHA plates in triplication, let the liquid soak into the agar for 10 minutes, invert the agar plates and incubate for 24 hr at 35±2° C. […] Record MICs and Calculate CFUs A. Open the compound plate layout in the compound management system, and check the assay plate barcode. B. Place the assay plate on the top of MIC reader, and adjust the magnification mirror to read each wells, record growth status as raw data. (Optional) Record photo image of each assay plates using high-speed high-resolution scanner. […] Determine MIC break points according to CLSI guideline. D. Count colonies and calculate CFU of bacterial inoculum.

Escherichia coli = experiment: MIC screening, broth microdilution (CLSI)
Experimental: as §6, §9, §10, §11

Streptococci = experiment: MIC screening, broth microdilution (CLSI)
Experimental: as §6, §7
Streptococci: TSA II, 5% CO2
as §8, §9, §10, §11

[1] = tested on: Acinetobacter calcoaceticus; experiment: MIC screening, broth microdilution (CLSI)
Experimental: as §6, §9, §10, §11

Pseudomonas aeruginosa = experiment: MIC screening, broth microdilution (CLSI)
Experimental: as §6, §9, §10, §11

Enterococci = experiment: MIC screening, broth microdilution (CLSI)
Experimental: as §6, §7
Enterococci: TSA II, ambient air
as §8, §9, §10
B. Transfer colonies from fresh culture plates into 5 ml of saline with sterile loops and mix well. Measure and adjust turbidity to 0.5 McFarland barium sulphate standard using a turbidity meter. Alternatively, transfer 1-2 colonies into 500 μl of saline and adjust OD625 to ˜0.1 using a plate reader. C. Dilute bacterial inoculum 1:280 for Gram-positive and fastidious strains and 1:400 for Gram-negative strains into corresponding medium broth (CAMHB, CAMHB+3% lysed horse blood, HTM) (e.g. 35.6 μl of inoculum into 10 ml of CAMHB or 25 μl of inoculum into 10 ml of CAMHB). H. influenzae: HTM Streptococci: CAMHB+3% lysed horse blood Other strains in the panel: CAMHB 2.4. Prepare Assay Plates A. Add 100 μl of the bacterial inoculum to each well of the compound plates except wells B12, D12, F12 and H12. B. Add 100 μl of medium broth to wells B12, D12, F12 and H12 of the compound plates. C. Stack four plates together and cover with a sterile plate lid. Incubate in an ambient-air incubator at 35±2° C. for 16-20 hours (24 hours for MRSA). […] Perform Colony Counts A. Dilute the bacterial inoculum (0.5 McFarland) to a serial of 10-1 to 10-7 in saline solution (e.g. 100 μl bacterial inoculum+900 μl of saline). B. Spread 100 μl of each dilution (10-4, 10-5, 10-6, and 10-7) onto CAMHA plates in triplication, let the liquid soak into the agar for 10 minutes, invert the agar plates and incubate for 24 hr at 35±2° C. […] Record MICs and Calculate CFUs A. Open the compound plate layout in the compound management system, and check the assay plate barcode. B. Place the assay plate on the top of MIC reader, and adjust the magnification mirror to read each wells, record growth status as raw data. (Optional) Record photo image of each assay plates using high-speed high-resolution scanner. C. Determine MIC break points according to CLSI guideline. D. Count colonies and calculate CFU of bacterial inoculum.

[2] = Calculated Log partition coefficients (Log P)
MRSA = experiment: MIC screening, broth microdilution (CLSI)
Experimental: The MICs were determined by the broth microdilution method according to the Clinical and Laboratory Standards Institute (CLSI) guidelines. The MIC screening was performed on 96-well plates containing the compounds in serial 2-fold dilutions from 64 to 0.06 μg/ml. The bacterial inoculations were prepared in cation-adjusted Mueller Hinton medium broth from cultures grown on appropriate agar plates which are prepared freshly every week. The growth controls and sterile controls were included in each assay plates. The assay plates were incubated in an ambient-air incubator at 35±2° C. for 16-20 hr (24 hr for MRSA), and bacterial growth was observed and recorded.
as §7, §8, §9, §10, §11

Klebsiella pneumoniae = experiment: MIC screening, broth microdilution (CLSI)
Experimental: as §6, §9, §10, §11

Staphylococcus aureus = experiment: MIC screening, broth microdilution (CLSI)
Experimental: as §6, §9, §10, §11

BT-549 = experiment: NCI in vitro cancer screen, Breast Cancer; type: cell-based, human; details: for GI50 / CC50: Homo sapiens; for CC50: read-out: LC50 (the source's name)
FLT3 = FLT3 (Homo sapiens, UniProt P36888); experiment: Kinase activity assay; type: biochemical; details: listed = inhibited more than 60%
Experimental: as §1, §2, §3, §4, §5

CDK2/CyclinA2 = CDK2/CyclinA2 (Homo sapiens, UniProt P24941); experiment: Kinase activity assay; type: biochemical; details: listed = inhibited more than 60%
Experimental: as §1, §2, §3, §4, §5

PI3Kα = PI3Kα (Homo sapiens, UniProt P42336); experiment: Kinase activity assay; type: biochemical; details: listed = inhibited more than 60%
Experimental: as §1, §2, §3, §4, §5

[3] = Streptococcus pneumoniae, ATCC49619, Streptococcus pneumoniae (ATCC 49619), Exp 1
[4] = Streptococcus pneumoniae, ATCC49619, Streptococcus pneumoniae (ATCC 49619), Exp 2
[5] = Streptococcus pneumoniae, Streptococcus pneumoniae (Erythromycin-resistant), Exp 1
[6] = Streptococcus pneumoniae, Streptococcus pneumoniae (Erythromycin-resistant), Exp 2
[7] = Streptococcus pyogenes, ATCC700942, Streptococcus pyogenes (ATCC 700942), Exp 1
[8] = Streptococcus pyogenes, ATCC700942, Streptococcus pyogenes (ATCC 700942), Exp 2
[9] = Enterococcus faecalis, ATCC29212, Enterococcus faecalis (ATCC 29212), Exp 1
[10] = Enterococcus faecalis, ATCC29212, Enterococcus faecalis (ATCC 29212), Exp 2
[11] = Enterococcus faecium, ATCC700221, Enterococcus faecium (ATCC 700221), Exp 1
[12] = Enterococcus faecium, ATCC700221, Enterococcus faecium (ATCC 700221), Exp 2
[13] = Staphylococcus aureus (ATCC 43300), Exp 2
[14] = Staphylococcus aureus (MRSA, Erythromycin & clindamycin-resistant), Exp 2
[15] = Staphylococcus aureus, ATCC43300 / MRSA
[16] = ATCC29213, Staphylococcus aureus (ATCC 29213), Exp 1
[17] = ATCC29213, Staphylococcus aureus (ATCC 29213), Exp 2
[18] = Staphylococcus aureus (Levofloxacin-resistant), Exp 1
[19] = Staphylococcus aureus (Levofloxacin-resistant), Exp 2

Chain of TrkA (P04629 33-796, species assumed): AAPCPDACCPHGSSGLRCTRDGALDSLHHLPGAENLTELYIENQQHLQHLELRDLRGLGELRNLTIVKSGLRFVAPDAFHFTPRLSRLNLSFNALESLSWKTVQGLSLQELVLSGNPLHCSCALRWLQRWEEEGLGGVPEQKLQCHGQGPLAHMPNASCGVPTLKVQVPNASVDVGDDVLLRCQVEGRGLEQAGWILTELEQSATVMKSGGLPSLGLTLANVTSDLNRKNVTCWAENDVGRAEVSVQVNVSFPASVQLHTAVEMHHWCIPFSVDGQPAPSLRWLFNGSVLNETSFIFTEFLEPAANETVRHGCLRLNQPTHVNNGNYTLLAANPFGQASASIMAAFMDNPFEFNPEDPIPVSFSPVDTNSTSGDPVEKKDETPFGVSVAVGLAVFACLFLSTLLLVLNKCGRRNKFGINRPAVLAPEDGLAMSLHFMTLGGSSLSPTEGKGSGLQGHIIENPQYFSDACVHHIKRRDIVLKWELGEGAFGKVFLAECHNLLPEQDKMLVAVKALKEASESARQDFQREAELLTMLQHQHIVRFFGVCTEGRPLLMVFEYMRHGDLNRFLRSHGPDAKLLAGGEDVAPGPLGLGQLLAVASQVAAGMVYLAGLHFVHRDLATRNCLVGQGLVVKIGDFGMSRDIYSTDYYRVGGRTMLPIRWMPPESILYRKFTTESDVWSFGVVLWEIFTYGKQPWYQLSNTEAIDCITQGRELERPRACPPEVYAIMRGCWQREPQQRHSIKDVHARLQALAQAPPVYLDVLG
Chain of PI3Kγ (P48736 whole entry, species assumed): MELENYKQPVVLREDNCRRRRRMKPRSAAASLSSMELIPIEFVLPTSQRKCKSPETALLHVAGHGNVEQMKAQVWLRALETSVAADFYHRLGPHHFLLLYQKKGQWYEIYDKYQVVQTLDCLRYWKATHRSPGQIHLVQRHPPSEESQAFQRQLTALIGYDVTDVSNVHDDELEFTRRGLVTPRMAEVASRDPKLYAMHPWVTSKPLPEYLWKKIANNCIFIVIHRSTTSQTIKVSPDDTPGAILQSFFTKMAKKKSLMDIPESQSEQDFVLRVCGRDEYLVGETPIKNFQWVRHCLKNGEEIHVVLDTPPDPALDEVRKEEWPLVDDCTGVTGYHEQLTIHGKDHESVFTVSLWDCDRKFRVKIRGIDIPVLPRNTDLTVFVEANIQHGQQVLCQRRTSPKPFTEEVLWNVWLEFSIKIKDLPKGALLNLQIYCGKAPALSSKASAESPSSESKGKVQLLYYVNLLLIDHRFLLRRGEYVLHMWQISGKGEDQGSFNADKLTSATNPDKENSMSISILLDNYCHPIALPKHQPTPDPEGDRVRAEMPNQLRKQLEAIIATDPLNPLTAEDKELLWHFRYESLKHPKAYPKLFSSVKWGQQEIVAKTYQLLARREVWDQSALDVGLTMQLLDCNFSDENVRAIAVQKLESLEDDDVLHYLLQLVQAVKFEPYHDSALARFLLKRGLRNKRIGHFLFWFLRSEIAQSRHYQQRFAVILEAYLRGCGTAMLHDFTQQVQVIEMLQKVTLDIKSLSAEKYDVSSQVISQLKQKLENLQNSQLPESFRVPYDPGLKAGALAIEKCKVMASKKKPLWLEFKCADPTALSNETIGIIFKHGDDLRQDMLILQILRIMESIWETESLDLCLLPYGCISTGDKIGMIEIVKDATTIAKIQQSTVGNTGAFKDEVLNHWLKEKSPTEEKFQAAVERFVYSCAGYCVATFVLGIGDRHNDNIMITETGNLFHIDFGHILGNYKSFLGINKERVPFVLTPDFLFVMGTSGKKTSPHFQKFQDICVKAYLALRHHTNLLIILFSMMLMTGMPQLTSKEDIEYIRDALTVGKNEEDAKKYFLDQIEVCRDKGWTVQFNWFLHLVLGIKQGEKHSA
Chain of PI3Kδ (O00329 whole entry, species assumed): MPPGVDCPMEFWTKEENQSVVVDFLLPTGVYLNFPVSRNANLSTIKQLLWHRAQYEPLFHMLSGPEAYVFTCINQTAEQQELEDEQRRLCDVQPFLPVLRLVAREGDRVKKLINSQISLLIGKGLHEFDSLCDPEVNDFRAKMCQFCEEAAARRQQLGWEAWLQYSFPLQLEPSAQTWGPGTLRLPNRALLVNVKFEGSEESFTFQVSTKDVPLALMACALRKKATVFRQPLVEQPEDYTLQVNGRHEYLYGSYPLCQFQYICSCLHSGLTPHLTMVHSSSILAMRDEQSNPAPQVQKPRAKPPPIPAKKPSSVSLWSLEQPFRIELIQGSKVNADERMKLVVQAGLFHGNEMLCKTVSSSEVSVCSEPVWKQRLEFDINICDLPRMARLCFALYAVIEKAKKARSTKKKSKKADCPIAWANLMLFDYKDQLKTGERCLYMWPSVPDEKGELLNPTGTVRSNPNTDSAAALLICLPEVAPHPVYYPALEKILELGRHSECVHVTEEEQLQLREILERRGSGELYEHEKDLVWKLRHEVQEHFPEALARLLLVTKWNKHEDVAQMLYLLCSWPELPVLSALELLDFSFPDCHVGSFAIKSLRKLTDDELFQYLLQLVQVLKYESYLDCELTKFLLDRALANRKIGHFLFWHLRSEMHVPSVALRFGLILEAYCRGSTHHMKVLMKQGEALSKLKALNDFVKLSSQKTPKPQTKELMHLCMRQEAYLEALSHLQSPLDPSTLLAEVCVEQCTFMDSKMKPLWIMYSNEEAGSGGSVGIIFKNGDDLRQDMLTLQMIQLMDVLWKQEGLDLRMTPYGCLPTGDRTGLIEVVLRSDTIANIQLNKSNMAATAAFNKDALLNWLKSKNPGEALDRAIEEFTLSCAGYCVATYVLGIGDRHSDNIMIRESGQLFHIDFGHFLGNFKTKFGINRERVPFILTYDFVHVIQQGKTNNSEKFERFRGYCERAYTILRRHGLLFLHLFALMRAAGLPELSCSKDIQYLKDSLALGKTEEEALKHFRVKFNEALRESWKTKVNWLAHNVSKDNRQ
Chain of PI3Kδ (P27986 whole entry partner, species assumed): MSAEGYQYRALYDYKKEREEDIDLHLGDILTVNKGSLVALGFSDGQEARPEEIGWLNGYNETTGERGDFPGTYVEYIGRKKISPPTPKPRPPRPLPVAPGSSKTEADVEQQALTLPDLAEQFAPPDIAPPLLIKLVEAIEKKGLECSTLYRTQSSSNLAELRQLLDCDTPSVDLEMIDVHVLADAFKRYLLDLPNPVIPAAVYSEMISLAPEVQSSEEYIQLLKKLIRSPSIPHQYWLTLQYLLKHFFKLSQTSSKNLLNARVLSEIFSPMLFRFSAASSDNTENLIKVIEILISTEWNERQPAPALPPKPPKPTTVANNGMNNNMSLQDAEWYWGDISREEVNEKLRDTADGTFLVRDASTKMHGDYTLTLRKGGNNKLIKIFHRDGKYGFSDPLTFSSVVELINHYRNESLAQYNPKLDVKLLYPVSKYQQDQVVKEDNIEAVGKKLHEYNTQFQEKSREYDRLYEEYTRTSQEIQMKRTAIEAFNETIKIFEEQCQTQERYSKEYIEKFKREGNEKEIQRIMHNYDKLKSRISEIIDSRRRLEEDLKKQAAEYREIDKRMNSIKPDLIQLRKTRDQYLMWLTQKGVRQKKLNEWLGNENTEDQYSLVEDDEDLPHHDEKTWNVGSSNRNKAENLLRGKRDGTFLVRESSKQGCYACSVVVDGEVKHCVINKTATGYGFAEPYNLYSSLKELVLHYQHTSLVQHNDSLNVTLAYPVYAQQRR
Chain of FLT3 (P36888 27-993, species assumed): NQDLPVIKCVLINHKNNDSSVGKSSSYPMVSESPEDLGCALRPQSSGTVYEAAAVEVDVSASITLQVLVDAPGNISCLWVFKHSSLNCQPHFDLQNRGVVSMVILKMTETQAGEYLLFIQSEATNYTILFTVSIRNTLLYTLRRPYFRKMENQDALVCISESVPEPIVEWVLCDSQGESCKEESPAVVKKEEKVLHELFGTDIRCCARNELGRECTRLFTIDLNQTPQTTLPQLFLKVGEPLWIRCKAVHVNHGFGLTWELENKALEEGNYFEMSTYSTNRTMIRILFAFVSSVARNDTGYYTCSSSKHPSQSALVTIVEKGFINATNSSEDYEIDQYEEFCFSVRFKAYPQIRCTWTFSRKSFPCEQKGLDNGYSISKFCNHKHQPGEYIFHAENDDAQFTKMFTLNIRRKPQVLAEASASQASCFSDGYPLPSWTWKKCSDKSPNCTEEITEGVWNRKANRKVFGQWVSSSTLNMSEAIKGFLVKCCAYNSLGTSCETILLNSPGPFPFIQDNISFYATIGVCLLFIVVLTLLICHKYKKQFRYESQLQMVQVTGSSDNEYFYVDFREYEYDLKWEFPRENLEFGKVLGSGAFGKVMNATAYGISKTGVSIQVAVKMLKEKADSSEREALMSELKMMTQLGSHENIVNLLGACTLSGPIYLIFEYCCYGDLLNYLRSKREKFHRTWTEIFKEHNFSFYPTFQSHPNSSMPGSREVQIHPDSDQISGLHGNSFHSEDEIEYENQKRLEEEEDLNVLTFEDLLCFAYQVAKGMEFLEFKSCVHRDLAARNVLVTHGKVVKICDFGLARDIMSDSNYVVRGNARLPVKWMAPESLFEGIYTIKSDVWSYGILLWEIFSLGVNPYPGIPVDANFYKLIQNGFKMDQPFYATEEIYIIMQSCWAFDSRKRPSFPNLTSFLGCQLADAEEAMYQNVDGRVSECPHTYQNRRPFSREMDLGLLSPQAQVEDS

Row | Structure (SMILES) | Kinases that inhibited more than 60% (TrkA) | Kinases that inhibited more than 60% (PI3Kγ) | Kinases that inhibited more than 60% (PI3Kδ) | Kinases that inhibited more than 60% (PI3Kβ) | MIC (Haemophilus influenzae) | MIC (Haemophilus influenzae; Exp 2) | MIC (Escherichia coli; Exp 1) | MIC (Escherichia coli; Exp 2) | MIC (Streptococci; [3]) | MIC (Streptococci; [4]) | MIC (Streptococci; [5]) | MIC (Streptococci; [6]) | MIC (Streptococci; [7]) | MIC (Streptococci; [8]) | MIC [1] | MIC ([1]; Exp 2) | MIC (Pseudomonas aeruginosa) | MIC (Pseudomonas aeruginosa; Exp 2) | MIC (Enterococci; [9]) | MIC (Enterococci; [10]) | other results
1 | COc1cc(/C=C/c2cc(O)cc(OCC=C(C)C)c2)ccc1O [USYDS2, (E)-3-(3-methyl-2-butenyloxy)-4′,5-dihydroxy-3′-methoxystilbene] | TrkA | PI3Kγ | PI3Kδ | PI3Kβ | 32 µg/mL (≈ 98 µM) | 32 µg/mL (≈ 98 µM) | 64 µg/mL (≈ 196 µM) | 32 µg/mL (≈ 98 µM) | 32 µg/mL (≈ 98 µM) | 32 µg/mL (≈ 98 µM) | 32 µg/mL (≈ 98 µM) | 64 µg/mL (≈ 196 µM) | 64 µg/mL (≈ 196 µM) | 64 µg/mL (≈ 196 µM) | > 64 µg/mL | >64 µg/mL | > 64 µg/mL | >64 µg/mL | 32 µg/mL (≈ 98 µM) | 32 µg/mL (≈ 98 µM) | MIC (Enterococci; [11]): 32 µg/mL (≈ 98 µM); MIC (Enterococci; [12]): 32 µg/mL (≈ 98 µM); Log P relative to resveratrol [2]: almost twice that of the hydroxystilbene resveratrol; MIC (MRSA; [13]): 16 µg/mL (≈ 49 µM); MIC (MRSA; [14]): 16 µg/mL (≈ 49 µM); MIC (MRSA; [15]): 16 µg/mL (≈ 49 µM); MIC (MRSA; Staphylococcus aureus, MRSA): 16 µg/mL (≈ 49 µM); MIC (Klebsiella pneumoniae): > 64 µg/mL; MIC (Klebsiella pneumoniae; Exp 2): >64 µg/mL; MIC (Staphylococcus aureus; [16]): 32 µg/mL (≈ 98 µM); MIC (Staphylococcus aureus; [17]): 16 µg/mL (≈ 49 µM); MIC (Staphylococcus aureus; [18]): 16 µg/mL (≈ 49 µM); MIC (Staphylococcus aureus; [19]): 16 µg/mL (≈ 49 µM)
2 | CC(C)=CCOc1cc(O)cc(/C=C/c2ccc(O)c(O)c2)c1CC=C(C)C [USYDS14, (E)-2-(3-methyl-2-buten-1-yl)-3-(3-methyl-2-butenyloxy)-3′,4′,5-trihydroxystilbene] |  |  |  |  |  |  |  |  |  |  |  |  |  |  |  |  |  |  |  |  | TGI (BT-549; BT-549, Breast Cancer): 1.63e-05 M; GI50 (BT-549; BT-549, Breast Cancer): 4.27 µM; CC50 (BT-549; BT-549, Breast Cancer): 46.9 µM
3 | COc1cc(/C=C/c2cc(O)cc(OC)c2CC=C(C)C)ccc1O [USYDS1, (E)-2-(3-methyl-2-buten-1-yl)-4′,5-dihydroxy-3,3′-dimethoxystilbene] | TrkA | PI3Kγ | PI3Kδ |  | 32 µg/mL (≈ 94 µM) | 32 µg/mL (≈ 94 µM) | 16 µg/mL (≈ 47 µM) | 16 µg/mL (≈ 47 µM) | 32 µg/mL (≈ 94 µM) | 32 µg/mL (≈ 94 µM) | 32 µg/mL (≈ 94 µM) | 32 µg/mL (≈ 94 µM) | 64 µg/mL (≈ 188 µM) | 64 µg/mL (≈ 188 µM) | > 64 µg/mL | >64 µg/mL | > 64 µg/mL | >64 µg/mL | 16 µg/mL (≈ 47 µM) | 16 µg/mL (≈ 47 µM) | Kinases that inhibited more than 60% (FLT3): FLT3; Kinases that inhibited more than 60% (CDK2/CyclinA2): CDK2/CyclinA2; Kinases that inhibited more than 60% (PI3Kα): PI3Kα; MIC (Enterococci; [11]): 8 µg/mL (≈ 23.5 µM); MIC (Enterococci; [12]): 16 µg/mL (≈ 47 µM); Log P relative to resveratrol [2]: almost twice that of the hydroxystilbene resveratrol; MIC (MRSA; [13]): 8 µg/mL (≈ 23.5 µM); MIC (MRSA; [14]): 8 µg/mL (≈ 23.5 µM); MIC (MRSA; [15]): 8 µg/mL (≈ 23.5 µM); MIC (MRSA; Staphylococcus aureus, MRSA): 8 µg/mL (≈ 23.5 µM); MIC (Klebsiella pneumoniae): > 64 µg/mL; MIC (Klebsiella pneumoniae; Exp 2): >64 µg/mL; MIC (Staphylococcus aureus; [16]): 16 µg/mL (≈ 47 µM); MIC (Staphylococcus aureus; [17]): 8 µg/mL (≈ 23.5 µM); MIC (Staphylococcus aureus; [18]): 8 µg/mL (≈ 23.5 µM); MIC (Staphylococcus aureus; [19]): 8 µg/mL (≈ 23.5 µM)
4 | COc1cc(/C=C/c2cc(O)cc(O)c2CC=C(C)C)ccc1O [USYDS10, (E)-2-(3-methyl-2-buten-1-yl)-3,4′,5-trihydroxy-3′-methoxystilbene] | TrkA | PI3Kγ | PI3Kδ | PI3Kβ |  |  |  |  |  |  |  |  |  |  |  |  |  |  |  |  | Kinases that inhibited more than 60% (FLT3): FLT3; Kinases that inhibited more than 60% (CDK2/CyclinA2): CDK2/CyclinA2; Kinases that inhibited more than 60% (PI3Kα): PI3Kα; TGI (BT-549; BT-549, unit not printed (M)): 1.90E−5; GI50 (BT-549; BT-549, unit not printed (M)): 0.798 µM; CC50 (BT-549; BT-549, unit not printed (M)): 49.3 µM

Source: patent US10696615B2, “Prenylated hydroxystilbenes” (The University of Sydney, priority 2011, dated 2020)
